Like-named read-outs stand apart in the source and are kept apart here.
Assays:
JAK3 enzyme = JAK3 enzyme (Homo sapiens (Human), UniProt P52333); test: JAK Caliper Enzyme Assay at 4 μM or 1 mM ATP; format: biochemical
[1] = tested on: IL-15 induced STAT5 phosphorylation in human whole blood lymphocytes; test: HWB IL-15 induced STAT5 phosphorylation assay; format: cell-based; conditions: IL-15 stimulated, read-out: HWB-IL15-pSTAT5 IC50
Description: HWB IL-15 Induced STAT5 Phosphorylation Assay
After mixing and incubating for 45 minutes at 37° C., 5 μl D-PBS (unstimulated control) or 20× stocks of 5 μl human IL-15 (final concentration is 50 ng/ml) were added, and mixed three times. After incubating 15 minutes at 37° C., 1× Lyse/Fix Buffer (BD Phosflow 5× Lyse/Fix Buffer) was added to all wells at 1000 μl/well, then incubated for 20 minutes at 37° C. and spun 5 mins at 1200 rpm. […] Following incubating at 4° C. over night, all the samples were transferred to 96-well polypropylene U-bottom plate, and checked by flow cytometry gated on total lymphocytes.

[2] = tested on: IL-15 induced P-STAT5 in human PBMC; test: PBMC IL-15 induced P-STAT5; format: cell-based; conditions: read-out: PBMC IL15-pSTAT5 IC50
Description: PBMC IL-15 Induced P-STAT5
Frozen human PBMC (200-250 million cells/vial) was thawed at 37° C. The cells were transferred to 10 mL warm medium in a 50-mL conical tube, and centrifuged at 1,200 RPM at room temperature for 5 min. The supernatant was aspirated. […] After adding 47 ml D-PBS (37° C.) to PBMC/FBS suspension, centrifuging at 1,200 RPM at room temperature for 5 min, and aspirating the supernatant, the cells were resuspended in 20 mL warm RPMI medium. Ninety μL of cell suspension were pipetted per well in a 96-well, deep-well, V-bottom plate, and the plate was incubated at 37° C. for 30 min. […] After adding 0.8 mL staining buffer per well, the plates were centrifuged at 1,200 RPM (Beckman GS-6R or Sorvall Legend) at room temperature for 5 min, and again the supernatant was aspirated using a 8-channel or 12-channel manifold. The plate was vortexed, and 0.35 mL 90% methanol/10% H2O (−20° C.) was added per well, and the plate incubated on ice for 20 min. After again adding 0.8 mL staining buffer per well, the plates were centrifuged at 1,200 RPM (Beckman GS-6R or Sorvall Legend) at room temperature for 5 min, and again the supernatant was aspirated using a 8-channel or 12-channel manifold, and then 0.8 mL Staining buffer was added per well. After once again adding 0.8 mL staining buffer per well, the plates were centrifuged at 1,200 RPM (Beckman GS-6R or Sorvall Legend) at room temperature for 5 min, and again the supernatant was aspirated using a 8-channel or 12-channel manifold. […] Samples of 250 μL/well were transferred to a 96-well U-bottom plate, and the FACS analysis was performed gating on total lymphocytes. Samples were analyzed using a BD Calibur™ or BD FACSCanto™ flow cytometer equipped with the BD High Throughput Sampler.

[3] = Stability of JAK3 covalent inhibitors in human whole blood; conditions: 1 μM, 37° C.
Description: Stability of JAK3 Covalent Inhibitors in Rat and Human Whole Blood
Rat blood was collected from 3 male Sprague-Dawley rats (200-250 g, Charles River Laboratories) and pooled for each study. Human blood was collected from one male and one female healthy subjects at the Occupational Health & Wellness Center at Pfizer, Groton, CT and pooled for each study. Both rat and human blood was collected freshly into K2-EDTA tubes and kept on ice. An aliquot of the blood was transferred to microtubes and pre-warmed for 10 min at 37° C. using a heat block. […] An aliquot of the incubation mixture was removed at designated time points during the course of the incubation, mixed with an aliquot of acetonitrile containing an internal standard, vortexed and centrifuged. The resulting supernatants were removed and subjected to LC-MS/MS analyses to determine parent compound concentrations. Peak area ratios of the parent compound vs the internal standard were used to determine the % of parent compound remaining vs incubation time.

[4] = read-out: JAK3 (4 μM ATP) IC50, 4 μM ATP
[5] = read-out: JAK3 (1 mM ATP) IC50, 1 mM ATP
[6] = Homo sapiens, PBMC, human PBMC, IL-15 stimulated

JAK3 enzyme, sequence (P52333 whole entry, species assumed): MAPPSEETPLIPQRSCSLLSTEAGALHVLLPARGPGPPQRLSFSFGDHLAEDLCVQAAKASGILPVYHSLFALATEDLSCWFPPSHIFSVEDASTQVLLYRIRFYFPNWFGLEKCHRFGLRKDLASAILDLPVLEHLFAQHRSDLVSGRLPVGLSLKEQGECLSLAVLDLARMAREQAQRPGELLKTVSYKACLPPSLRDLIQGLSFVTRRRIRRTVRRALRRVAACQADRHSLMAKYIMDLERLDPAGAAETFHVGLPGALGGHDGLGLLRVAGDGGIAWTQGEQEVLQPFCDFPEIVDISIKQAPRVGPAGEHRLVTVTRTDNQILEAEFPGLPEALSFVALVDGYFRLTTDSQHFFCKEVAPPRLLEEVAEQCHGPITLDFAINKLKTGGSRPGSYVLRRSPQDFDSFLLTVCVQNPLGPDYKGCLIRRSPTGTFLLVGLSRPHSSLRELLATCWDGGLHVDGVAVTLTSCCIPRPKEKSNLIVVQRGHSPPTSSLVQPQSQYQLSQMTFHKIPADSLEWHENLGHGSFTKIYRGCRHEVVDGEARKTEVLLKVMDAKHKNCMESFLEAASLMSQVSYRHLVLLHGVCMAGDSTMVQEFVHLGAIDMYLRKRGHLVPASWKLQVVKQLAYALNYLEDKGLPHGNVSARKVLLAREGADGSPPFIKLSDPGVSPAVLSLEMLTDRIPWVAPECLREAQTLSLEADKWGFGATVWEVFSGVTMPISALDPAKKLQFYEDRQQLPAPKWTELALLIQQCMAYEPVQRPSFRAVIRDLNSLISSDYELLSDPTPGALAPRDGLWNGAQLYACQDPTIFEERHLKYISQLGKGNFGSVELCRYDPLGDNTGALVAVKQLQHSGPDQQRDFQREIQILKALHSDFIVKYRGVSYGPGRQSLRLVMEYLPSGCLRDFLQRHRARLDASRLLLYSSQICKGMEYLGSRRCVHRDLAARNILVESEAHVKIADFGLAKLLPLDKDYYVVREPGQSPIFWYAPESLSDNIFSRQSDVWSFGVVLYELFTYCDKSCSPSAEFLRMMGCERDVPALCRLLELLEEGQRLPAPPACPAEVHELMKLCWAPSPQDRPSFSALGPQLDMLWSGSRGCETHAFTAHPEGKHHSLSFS

C=CC(=O)N1CCC[C@@H](Nc2ncnc3[nH]cc(-c4ccc(C(=O)NC5CC5)c(Cl)c4)c23)C1 [Example 31, 4-(4-{[(3R)-1-acryloylpiperidin-3-yl]amino}-7H-pyrrolo[2,3-d]pyrimidin-5-yl)-2-chloro-N-cyclopropylbenzamide]
IC50 (JAK3 enzyme; read-out: JAK3 (4 μM ATP) IC50): 24.1 nM | IC50 (JAK3 enzyme; read-out: JAK3 (1 mM ATP) IC50): 1860 nM | Human blood stability t1/2: >6 h

C=CC(=O)N1CCC(Oc2cnc3[nH]cc(-c4cccnc4F)c3n2)CC1 [Example 217, 1-(4-{[7-(2-fluoropyridin-3-yl)-5H-pyrrolo[2,3-b]pyrazin-2-yl]oxy}piperidin-1-yl)prop-2-en-1-one]
IC50 (JAK3 enzyme; [4]): 0.7 nM | IC50 (JAK3 enzyme; [5]): 42.4 nM | IC50 ([1]; Lymphocyte): > 10000 nM

C=CC(=O)N1CCC(Nc2cnc3[nH]cc(C(=O)N[C@H]4CCC[C@H](CC#N)C4)c3n2)CC1 [Example 262, 2-[(1-acryloylpiperidin-4-yl)amino]-N-[(1S,3S)-3-(cyanomethyl)cyclohexyl]-5H-pyrrolo[2,3-b]pyrazine-7-carboxamide]
IC50 ([1]; Lymphocyte): > 10000 nM

C=CC(=O)N1C[C@H](Nc2ncnc3[nH]ccc23)CC[C@@H]1CO [Example 161, 1-[(2R,5R)-2-(Hydroxymethyl)-5-(7H-pyrrolo[2,3-d]pyrimidin-4-ylamino)piperidin-1-y]prop-2-en-1-one]
IC50 [1]: 455 nM | IC50 ([2]; human PBMC, IL-15 stimulated): 76.9 nM | Human blood stability t1/2 [3]: >5.392 h

C=CC(=O)N1CCC[C@@H](Nc2ccnc3[nH]cc(C#N)c23)C1 [Example 2, (R)-4-((1-acryloylpiperidin-3-yl)amino)-1H-pyrrolo[2,3-b]pyridine-3-carbonitrile]
IC50 (JAK3 enzyme; read-out: JAK3 (4 μM ATP) IC50): 0.2 nM | IC50 (JAK3 enzyme; read-out: JAK3 (1 mM ATP) IC50): 18.9 nM | Human blood stability t1/2: >6 h | IC50 [1]: 220 nM | IC50 [2]: 30.4 nM

C=CC(=O)N1C[C@H](Nc2ncnc3[nH]ccc23)CC[C@@H]1CO (single isomer, unassigned) [Example 7]
IC50 ([1]; Lymphocyte): 455 nM | IC50 [2, 6]: 76.9 nM | Human blood stability t1/2 [3]: >5.558 h

C=CC(=O)N1C[C@@H](Nc2ncnc3[nH]ccc23)CC[C@H]1CO [Example 117, 1-[(2S,5S)-2-(Hydroxymethyl)-5-(7H-pyrrolo[2,3-d]pyrimidin-4-ylamino)piperidin-1-yl]prop-2-en-1-one]
IC50 ([1]; Lymphocyte): > 10000 nM | IC50 [2, 6]: > 10000 nM

C/C=C/C(=O)N1CCC[C@@H](Nc2ncnc3[nH]ccc23)C1 [Example 105, (2E)-1-[(3R)-3-(7H-pyrrolo[2,3-d]pyrimidin-4-ylamino)piperidin-1-yl]but-2-en-1-one]
IC50 (JAK3 enzyme; [4]): 2480 nM | IC50 (JAK3 enzyme; [5]): > 10000 nM | Human blood stability t1/2 [3]: >6 h

C=CC(=O)N1CCC(Nc2cnc3[nH]cc(-c4ccc(C)nc4)c3n2)CC1 [Example 199, 1-(4-{[7-(6-methylpyridin-3-yl)-5H-pyrrolo[2,3-b]pyrazin-2-yl]amino}piperidin-1-yl)prop-2-en-1-one]
IC50 (JAK3 enzyme; [4]): 1.2 nM | IC50 (JAK3 enzyme; [5]): 101 nM | IC50 ([1]; Lymphocyte): > 10000 nM

C=CC(=O)N1CCC(Oc2cnc3[nH]cc(-c4ccnc(C)c4)c3n2)CC1 [Example 220, 1-(4-{[7-(2-methylpyridin-4-yl)-5H-pyrrolo[2,3-b]pyrazin-2-yl]oxy}piperidin-1-yl)prop-2-en-1-one]
IC50 (JAK3 enzyme; [4]): 0.8 nM | IC50 (JAK3 enzyme; [5]): 70.4 nM | IC50 ([1]; Lymphocyte): > 10000 nM

C=CC(=O)N1C[C@@H]2C(Nc3cnc4[nH]cc(C(=O)NC(C)C)c4n3)[C@@H]2C1 (stereo partly drawn) [Example 189, 2-{[(1R,5S,6s)-3-acryloyl-3-azabicyclo[3.1.0]hex-6-yl]amino}-N-(propan-2-yl)-5H-pyrrolo[2,3-b]pyrazine-7-carboxamide]
IC50 (JAK3 enzyme; [4]): 1.1 nM | IC50 (JAK3 enzyme; [5]): 198 nM | IC50 ([1]; Lymphocyte): > 10000 nM

C=CC(=O)N1CCC(Nc2cnc3[nH]cc(C(=O)NCCCCCCCCC#N)c3n2)CC1 [Example 260, 2-[(1-acryloylpiperidin-4-yl)amino]-N-(8-cyanooctyl)-5H-pyrrolo[2,3-b]pyrazine-7-carboxamide]
IC50 ([1]; Lymphocyte): > 10000 nM

C=CC(=O)N1CCC(Nc2cnc3[nH]cc(C(=O)N[C@@H]4C[C@H]4C(F)(F)F)c3n2)CC1 [Example 233, 2-[(1-acryloylpiperidin-4-yl)amino]-N-[(1R,2R)-2-(trifluoromethyl)cyclopropyl]-5H-pyrrolo[2,3-b]pyrazine-7-carboxamide]
IC50 (JAK3 enzyme; [4]): 0.2 nM | IC50 (JAK3 enzyme; [5]): 20.6 nM | IC50 ([1]; Lymphocyte): 532 nM | IC50 ([2]; human PBMC, IL-15 stimulated): 213 nM

C=CC(=O)N[C@H]1C[C@@H](Nc2cnc3[nH]cc(C(=O)NC(C)C)c3n2)C1 [Example 184, 2-{[cis-3-(acryloylamino)cyclobutyl]amino}-N-(propan-2-yl)-5H-pyrrolo[2,3-b]pyrazine-7-carboxamide]
IC50 (JAK3 enzyme; [4]): 1.5 nM | IC50 (JAK3 enzyme; [5]): 210 nM | IC50 ([1]; Lymphocyte): > 10000 nM

C=CC(=O)N1CCC(Oc2cnc3[nH]cc(-c4cnn(C)c4)c3n2)CC1 [Example 218, 1-(4-{[7-(1-methyl-1H-pyrazol-4-yl)-5H-pyrrolo[2,3-b]pyrazin-2-yl]oxy}piperidin-1-yl)prop-2-en-1-one]
IC50 (JAK3 enzyme; [4]): 0.6 nM | IC50 (JAK3 enzyme; [5]): 81.1 nM | IC50 ([1]; Lymphocyte): 6190 nM | IC50 [2, 6]: 345 nM

C=CC(=O)N1C[C@H](C)C[C@@H](Nc2ncnc3[nH]ccc23)C1 (racemic) [Example 65, Rac-1-((3R,5R)-3-((7H-Pyrrolo[2,3-d]pyrimidin-4-yl)amino)-5-methylpiperidin-1-yl)prop-2-en-1-one]
IC50 ([1]; Lymphocyte): > 10000 nM

C=CC(=O)N1CC2CCN(c3cnc4[nH]cc(C(=O)NC(C)C)c4n3)C2C1 (stereo not shown) [Example 178, 2-(5-acryloylhexahydropyrrolo[3,4-b]pyrrol-1(2H)-yl)-N-(propan-2-yl)-5H-pyrrolo[2,3-b]pyrazine-7-carboxamide]
IC50 (JAK3 enzyme; [4]): 1.1 nM | IC50 (JAK3 enzyme; [5]): 102 nM | IC50 ([1]; Lymphocyte): 2560 nM | IC50 [2, 6]: 208 nM

C=CC(=O)N1CCC(Oc2cnc3[nH]cc(-c4cncc(F)c4)c3n2)CC1 [Example 213, 1-(4-{[7-(5-fluoropyridin-3-yl)-5H-pyrrolo[2,3-b]pyrazin-2-yl]oxy}piperidin-1-yl)prop-2-en-1-one]
IC50 (JAK3 enzyme; [4]): 0.8 nM | IC50 (JAK3 enzyme; [5]): 69.4 nM | IC50 ([1]; Lymphocyte): > 10000 nM

C=CC(=O)N1CCC(Nc2cnc3[nH]cc(-c4cncc(C#N)c4)c3n2)CC1 [Example 206, 5-{2-[(1-acryloylpiperidin-4-yl)amino]-5H-pyrrolo[2,3-b]pyrazin-7-yl}pyridine-3-carbonitrile]
IC50 (JAK3 enzyme; [4]): 0.1 nM | IC50 (JAK3 enzyme; [5]): 19.6 nM | IC50 ([1]; Lymphocyte): > 10000 nM

C=C(COC)C(=O)N1CCC[C@@H](Nc2ncnc3[nH]ccc23)C1 [Example 94, 2-(methoxymethyl)-1-[(3R)-3-(7H-pyrrolo[2,3-d]pyrimidin-4-ylamino)piperidin-1-yl]prop-2-en-1-one]
IC50 (JAK3 enzyme; [4]): 802 nM | IC50 (JAK3 enzyme; [5]): > 10000 nM | IC50 ([2]; human PBMC, IL-15 stimulated): > 10000 nM

C=CC(=O)N1CCC(Oc2cnc3[nH]cc(C(=O)NC(C)(C)C)c3n2)CC1 [Example 338, 2-((1-Acryloylpiperidin-4-yl)oxy)-N-(tert-butyl)-5H-pyrrolo[2,3-b]pyrazine-7-carboxamide]
IC50 (JAK3 enzyme; [4]): 0.4 nM | IC50 (JAK3 enzyme; [5]): 115 nM | IC50 ([1]; Lymphocyte): > 10000 nM

C=CC(=O)N1CC(O)C(Nc2cnc3[nH]cc(C(=O)NC(C)C)c3n2)C1 (stereo not shown) [Example 179, 2-[(1-acryloyl-4-hydroxypyrrolidin-3-yl)amino]-N-(propan-2-yl)-5H-pyrrolo[2,3-b]pyrazine-7-carboxamide]
IC50 (JAK3 enzyme; [4]): 2.3 nM | IC50 (JAK3 enzyme; [5]): 309 nM | IC50 ([1]; Lymphocyte): > 10000 nM | IC50 ([2]; human PBMC, IL-15 stimulated): > 10000 nM

C=CC(=O)N1CC(Nc2ncnc3[nH]ccc23)CCC1CO (stereo not shown) [Example 118, 1-[2-(Hydroxymethyl)-5-(7H-pyrrolo[2,3-d]pyrimidin-4-ylamino)piperidin-1-yl]prop-2-en-1-one]
IC50 ([2]; human PBMC, IL-15 stimulated): > 10000 nM | Human blood stability t1/2 [3]: >5.558 h

C=CC(=O)N1CC[C@]2(C)CCN(c3ncnc4[nH]ccc34)[C@@H]2C1 [Example 59, 1-((3aS,7aS)-3a-Methyl-1-(7H-pyrrolo[2,3-d]pyrimidin-4-yl)hexahydro-1H-pyrrolo[2,3-c]pyridin-6 (2H)-yl)prop-2-en-1-one]
IC50 (JAK3 enzyme; [4]): 3.2 nM | IC50 (JAK3 enzyme; [5]): 403 nM | IC50 [2, 6]: > 2550 nM

Source: US20250134869A1, “Pyrrolo[2,3-d]pyrimidinyl, Pyrrolo[2,3-b]pyrazinyl and Pyrrolo[2,3-d]pyridinyl Acryla-mides” (Pfizer Inc, priority 2021, published 2025)
